The source of these data is publication PMC7743076 (bioRxiv, 2021).

The conditions of data set [1]: cited from earlier work; for pKa: ref published literature and PubChem.
For data set [2] the following is noted: 120 mg/kg IP, mice; cited from earlier work.
Data set [3] has as its system SARS-2-PV bearing spike from ancestral strain Wuhan-1, entry into 293T-ACE2-TMPRSS2 cells. The class given is cell-based, SARS-CoV-2. Conditions: for IC50: read-out: IC50, PV entry efficiency.
Data set [4] concerns SARS-CoV-2 (Wuhan-1) infection in Vero E6 cells. Put plainly: Authentic SARS-CoV-2. The class given is cell-based. Conditions: preliminary dose ranging.
Data set [5] concerns authentic SARS-CoV-2 (Wuhan-1) in Vero E6-TMPRSS2 cells. The class given is cell-based.
The test system of data set [6] is SARS-CoV-2 (isolate USA-WA1/2020 or Wuhan-1). Set-up: species or system Syrian hamsters (Mesocricetus auratus). The following applies: hamster, in vivo.
The mark [7] stands for this setting: drug with two pKa values printed.

Where a name gives a salt, the structure may show the parent alone. Read-outs that look alike come from different tables or passages of the source. A value given as a limit tells only on which side of the number the result lay.

Broadly, the pKa is the pH at which an ionisable group is half protonated. For `CC(C)(S)C(=O)N[C@@H](CS)C(=O)O` [Bucillamine], the “pKa” value in data set [1] (setting [7]) was 10.2; in data set [1] (thiol pKa) it was 8.4.
For `Cl.NCCS` [cysteamine hydrochloride], in data set [2], the Peak plasma concentration is 0.6 mM and the “Time of peak plasma concentration after administration” value was at most 5 min.
Turning to `O=S(=O)(O)CCS` [Mesna, 2-mercaptoethane sulfonate, sodium salt], in data set [1] (thiol pKa), the pKa was above 9.
As usually defined, the IC50 is the concentration that gives 50% inhibition. With `NCCCNCCS` [WR-1065], in data set [3], the half-inhibitory concentration (IC50) is around 1000 µM. Further, the “Virus-induced cytopathic effects (in words)” value in data set [4] is on record as “very effective at decreasing virus-induced cytopathic effects”.
On to `O=C(O)[C@@H](S)[C@@H](S)C(=O)O` [Succimer, Dimercaptosuccinic acid], for which the “pKa” value in data set [1] (setting [7]) is 10.8; in data set [1] (thiol pKa), 8.9.
On to `N[C@@H](CSCC(=O)O)C(=O)O` [Carbocysteine], for which the “Virus-induced cytopathic effects (in words)” value in data set [5] is “not effective”. In data set [3], the “Inhibition of SARS-2-PV entry (in words)” value is reported as “did not inhibit virus entry”.
Consider `CO[C@H]1O[C@H](CS)[C@H](O)[C@H](O)[C@H]1O` [TDG, methyl 6-thio-6-deoxy-α-D-galactopyranoside], for which the “reported pKa” value in data set [1] (TDG, thiol pKa, reported, reference not given) is 9.6.
For the molecule `NCCCNCCSP(=O)(O)O` [Amifostine], the “Inhibition of SARS-2-PV entry (in words)” value in data set [3] was “did not inhibit virus entry”.
Take `NCCS` [Cysteamine]: the “Virus-induced cytopathic effects (in words)” value in data set [5] is given as “significantly decreased virus-induced cytopathic effects”. In addition, in data set [6], the Alveolar hemorrhage scores result is listed as “significantly lower than in the control group”, the “Histopathology scores for mixed cell lung inflammation” value is given as “significantly lower than in the control group”, the “Lung weights (normalized to terminal body weights)” value was “significantly lower than in the control group” and the “Lymphocytes in BAL” value is “decreases”. Moreover, in data set [6], the “Neutrophils in BAL” value is “decreases”, the “Total cell counts in BAL” value is recorded as “lower than in control treated animals”, the “Total protein in BAL” value is “lower” and the “Viral N2 gene transcripts in lung tissue” value is listed as “not significantly lower than in controls”. Moreover, the IC50 in data set [3] is around 1000 µM. Also, the pKa in data set [1] (thiol pKa) is 8.2. The “Virus-induced cytopathic effects (in words)” value in data set [4] is “very effective at decreasing virus-induced cytopathic effects”.
